Structures can show the parent of a compound that is named as a salt.
How the values were obtained:
human 5-HT3 receptor [1] = biological target: T1, human 5-HT3 receptor (Homo sapiens, UniProt P46098); assay: Compound affinity for the human 5-HT3 receptor (Assay D), [3H]BRL 43694 radioligand binding, Cerep; set-up: host or cells: CHO cells
T1 sequence (P46098 24-478): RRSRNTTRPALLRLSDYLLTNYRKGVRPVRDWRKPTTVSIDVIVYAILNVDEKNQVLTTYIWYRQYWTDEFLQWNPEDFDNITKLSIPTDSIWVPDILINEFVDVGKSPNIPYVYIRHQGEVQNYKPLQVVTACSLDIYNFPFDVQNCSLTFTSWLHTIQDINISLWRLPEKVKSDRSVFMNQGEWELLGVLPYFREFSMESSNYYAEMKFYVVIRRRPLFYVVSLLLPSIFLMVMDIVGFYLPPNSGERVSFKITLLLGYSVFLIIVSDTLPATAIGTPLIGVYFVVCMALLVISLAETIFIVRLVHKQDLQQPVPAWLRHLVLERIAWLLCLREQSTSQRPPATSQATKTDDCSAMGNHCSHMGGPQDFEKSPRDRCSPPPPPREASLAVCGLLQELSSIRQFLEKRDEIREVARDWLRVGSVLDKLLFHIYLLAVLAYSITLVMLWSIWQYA
Protocol: Compound Affinity for the Human 5-HT3Receptor (Assay D)
Compounds were tested by Cerep, Le Bois l'Evêque—B.P. 1-86600 Celle, L'Evescault, France in a radioligand binding assay using the human recombinant 5-HT3 receptor (CHO cells, Hope, A. G., Peters, J. A., Brown, A. M., Lambert, J. J. and Blackburn, T. P. Brit. J. Pharmacol., 1996, 118: 1237-1245) and [^3H]BRL 43694 (ligand) with a […] at 22° C. For the above studies, the non-specific binding determinant was MDL 72222 (10 μM). The IC50 values (concentration causing a half-maximal inhibition of control specific binding) and Hill coefficients were determined by non-linear regression analysis of the competition curves using Hill equation curve fitting. The inhibition constants (Ki) were calculated from the Cheng Prusoff equation (Ki=IC50/(1+(L/KD)), where L=concentration of radioligand in the assay, and KD=affinity of the radioligand for the receptor).
(§1) In the table below, the assay in which the data were obtained is shown (as A, B. C, or D) along with the data.

mouse 5-HT3 receptor = biological target: T2, mouse 5-HT3 receptor (Mus musculus, UniProt P23979); assay: Compound affinity for the mouse 5-HT3 receptor (Assay C), [3H]-GR65630 radioligand binding, Novoscreen; conditions: Assay C; single concentration 100 nM, in duplicate; [3H]-GR65630; read-out: Mouse % Inhibition @ 100 nM
T2 construct: host or cells: mouse neuroblastoma cells (N1E-155 as printed)
T2 sequence (P23979 24-489): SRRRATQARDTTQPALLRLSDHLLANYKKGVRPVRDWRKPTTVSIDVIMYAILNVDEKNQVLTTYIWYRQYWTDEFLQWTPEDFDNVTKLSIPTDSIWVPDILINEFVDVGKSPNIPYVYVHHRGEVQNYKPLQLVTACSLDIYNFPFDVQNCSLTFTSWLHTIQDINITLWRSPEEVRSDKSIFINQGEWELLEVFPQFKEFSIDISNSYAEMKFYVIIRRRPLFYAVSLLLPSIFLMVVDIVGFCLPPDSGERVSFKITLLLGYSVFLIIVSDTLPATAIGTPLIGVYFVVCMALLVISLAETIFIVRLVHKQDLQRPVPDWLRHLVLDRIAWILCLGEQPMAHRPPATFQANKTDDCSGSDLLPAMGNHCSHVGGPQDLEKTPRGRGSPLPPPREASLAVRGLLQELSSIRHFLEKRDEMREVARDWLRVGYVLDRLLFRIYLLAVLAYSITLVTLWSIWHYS
Protocol: Compound Affinity for the Mouse 5-HT3Receptor (Assay C)
(§2) Compounds were tested by Novoscreen Biosciences Corporation, 7170 Standard Drive, Hanover, Md. in a radioligand binding assay using the mouse 5-HT3 receptor derived from mouse neuroblastoma cells and [^3H]-GR65630 (ligand). The non-specific binding determinant was MDL 72222. Compounds were tested at a single concentration of 100 nM in duplicate. Percent inhibition is reported. In order to evaluate the relative affinity of the various compounds for the 5-HT3 receptor, N1E-155 cell lines were developed to express the target protein. For binding, these cells were homogenized, centrifuged and washed with buffer (20 mM HEPES, 150 mM NaCl, pH 7.4) then suspended in 0.5 mL of buffer and [^3H]-GR65630 added at a concentration of 3.5×10^−10 M. An initial single concentration of 10^−7 M of the test compound was then added. Incubation was carried out at room temperature for 60 minutes at 25° C. then was terminated by rapid removal of the incubation medium. Radioactivity was assessed using liquid scintillation spectrophotometry after exposure to scintillation cocktail for at least three hours. […] Ki values were then calculated from the Cheng-Prusoff equation. In all of the above binding studies the non-specific determinant was MDL-72222 (1.0 μM).
as §1

human 5-HT3 receptor [2] = biological target: T1, human 5-HT3 receptor; assay: Compound affinity for the human 5-HT3 receptor (Assay A), [3H]-GR65630 radioligand binding, MDS Pharma; set-up: host or cells: N1E-155 cell lines (so in the source)
Protocol: Compound Affinity for the Human 5-HT3 Receptor (Assay A)
as §2, with “tested by MDS Pharma Services—Taiwan Ltd., 158 Li—The Road, Peitou, Taipei, Taiwan 112 R.O.C. In order” for “tested by Novoscreen Biosciences Corporation, 7170 Standard Drive, Hanover, Md. in a radioligand binding assay using the mouse 5-HT3 receptor derived from mouse neuroblastoma cells and [^3H]-GR65630 (ligand). The non-specific binding determinant was MDL 72222. Compounds were tested at a single concentration of 100 nM in duplicate. Percent inhibition is reported. In order”, “for the human 5-HT3 receptor,” for “for the 5-HT3 receptor,”
as §1

[3] = Assay D, recombinant receptor in CHO cells, [3H]BRL 43694, Cheng-Prusoff, read-out: Human 5HT3 Ki
[4] = Assay A, [3H]-GR65630, Cheng-Prusoff, read-out: Human 5HT3 Ki

Compound	Ki (human 5-HT3 receptor [1])	inhibition at 0.1 µM (mouse 5-HT3 receptor)	further results
CN1[C@@H]2CCC[C@H]1C[C@@H](NC(=O)c1cccc3oc(C(C)(C)C)nc13)C2 [Example 3, Endo-N-(9-Methyl-9-azabicyclo[3.3.1]non-3-yl)-2-tert-butylbenzoxazole-4-carboxamide]	4.7 nM	104%	–
CC(C)(C)c1nc2c(C(=O)N[C@@H]3CN4CCC3CC4)cccc2o1 [Example 4, (S)—N-(1-Azabicyclo[2.2.2]oct-3-yl)-2-tert-butylbenzoxazole-4-carboxamide]	30 nM	94.3%	–
CN1[C@@H]2CCC[C@H]1C[C@@H](NC(=O)c1cccc3oc(C4CCCC4)nc13)C2 [Example 5, Endo-N-(9-Methyl-9-azabicyclo[3.3.1]non-3-yl)-2-cyclopentylbenzoxazole-4-carboxamide Hydrochloride]	–	96.2%	Ki (human 5-HT3 receptor [2]): 2.27 nM
CN1[C@@H]2CCC[C@H]1C[C@@H](NC(=O)c1cccc3oc(C4(C)CC4)nc13)C2 [Example 7, Endo-N-(9-Methyl-9-azabicyclo[3.3.1]non-3-yl)-2-(1-methylcyclopropyl)benzoxazole-4-carboxamide Hydrochloride]	3.3 nM	96.7%	–
CC1(c2nc3c(C(=O)N[C@@H]4CN5CCC4CC5)cccc3o2)CC1 [Example 8, (S)—N-(1-Azabicyclo[2.2.2]oct-3-yl)-2-(1-methylcyclopropyl)benzoxazole-4-carboxamide Hydrochloride]	19 nM	97.6%	–
CN1[C@@H]2CCC[C@H]1C[C@@H](NC(=O)c1cccc3oc(Cc4ccccc4)nc13)C2 [Example 9, Endo-N-(9-Methyl-9-azabicyclo[3.3.1]non-3-yl)-2-benzylbenzoxazole-4-carboxamide Hydrochloride]	11 nM	94.7%	–
O=C(N[C@@H]1CN2CCC1CC2)c1cccc2oc(Cc3ccccc3)nc12 [Example 10, (S)—N-(1-Azabicyclo[2.2.2]oct-3-yl)-2-benzylbenzoxazole-4-carboxamide Hydrochloride]	–	–	Ki (human 5-HT3 receptor [1]; [3]): 21 nM
CN1[C@@H]2CCC[C@H]1C[C@@H](NC(=O)c1cccc3oc(CC4CC4)nc13)C2 [Example 11, Endo-N-(9-Methyl-9-azabicyclo[3.3.1]non-3-yl)-2-(cyclopropylmethyl)benzoxazole-4-carboxamide Hydrochloride]	8.6 nM	98.6%	–
O=C(N[C@@H]1CN2CCC1CC2)c1cccc2oc(CC3CC3)nc12 [Example 12, (S)—N-(1-Azabicyclo[2.2.2]oct-3-yl)-2-(cyclopropylmethyl)benzoxazole-4-carboxamide Hydrochloride]	26 nM	90.6%	–
CC1CC1c1nc2c(C(=O)NC3CC4CCCC(C3)N4C)cccc2o1 (stereo not drawn) [Example 13, Endo-N-(9-Methyl-9-azabicyclo[3.3.1]non-3-yl)-2-(2-methylcyclopropyl)benzoxazole-4-carboxamide Hydrochloride]	–	88.1%	Ki (human 5-HT3 receptor [2]): 5.74 nM
CN1[C@@H]2CCC[C@H]1C[C@@H](NC(=O)c1cccc3oc(C4CCC4)nc13)C2 [Example 17, Endo-N-(9-Methyl-9-azabicyclo[3.3.1]non-3-yl)-2-cyclobutylbenzoxazole-4-carboxamide Hydrochloride]	7 nM	108%	–
O=C(N[C@@H]1CN2CCC1CC2)c1cccc2oc(C3CCC3)nc12 [Example 18, (S)—N-(1-Azabicyclo[2.2.2]oct-3-yl)-2-cyclobutylbenzoxazole-4-carboxamide Hydrochloride]	7 nM	108%	–
O=C(N[C@@H]1CN2CCC1CC2)c1cc(F)cc2oc(C3CC3)nc12 [Example 19, (S)—N-(1-Azabicyclo[2.2.2]oct-3-yl)-6-fluoro-2-cyclopropylbenzoxazole-4-carboxamide Hydrochloride]	–	–	Ki (human 5-HT3 receptor [1]; [3]): 44 nM
CN1[C@@H]2CCC[C@H]1C[C@@H](NC(=O)c1cc(F)cc3oc(C4CC4)nc13)C2 [Example 20, Endo-N-(9-Methyl-9-azabicyclo[3.3.1]non-3-yl)-6-fluoro-2-cyclopropylbenzoxazole-4-carboxamide Hydrochloride]	–	–	Ki (human 5-HT3 receptor [1]; [3]): 5.4 nM
O=C(N[C@@H]1CN2CCC1CC2)c1cccc2ocnc12 [Example 22, (S)—N-(1-Azabicyclo[2.2.2]oct-3-yl)-benzoxazole-4-carboxamide Hydrochloride]	–	–	Ki (human 5-HT3 receptor [2]; [4]): 16.6 nM
CC(=O)N1CCC(c2nc3c(C(=O)N[C@H]4C[C@H]5CCC[C@@H](C4)N5C)cccc3o2)CC1 [Example 23, Endo-N-(9-methyl-9-azabicyclo[3.3.1]non-3-yl)-2-(1-acetylpiperidin-4-yl)benzoxazole-4-carboxamide Hydrochloride]	–	–	Ki (human 5-HT3 receptor [2]; [4]): 36.6 nM
CN1[C@@H]2CCC[C@H]1C[C@@H](NC(=O)c1cccc3oc(C4CCOCC4)nc13)C2 [Example 24, Endo-N-(9-methyl-9-azabicyclo[3.3.1]non-3-yl)-2-(tetrahydro-2H-pyran-4-yl)benzoxazole-4-carboxamide Hydrochloride]	–	–	Ki (human 5-HT3 receptor [2]; [4]): 17.6 nM
Cc1nc2c(C(=O)N[C@H]3C[C@H]4CCC[C@@H](C3)N4C)cccc2o1 [Example 34, Endo-N-(9-Methyl-9-azabicyclo[3.3.1]non-3-yl)-2-methylbenzoxazole-4-carboxamide]	5.5 nM	79%	–
Cc1nc2c(C(=O)N[C@@H]3CN4CCC3CC4)cccc2o1 [Example 35, (S)—N-(1-Azabicyclo[2.2.2]oct-3-yl)-2-methylbenzoxazole-4-carboxamide]	12 nM	83%	–
